Measured values: patent US10149907B2, “Combinations of a photosensitizer with a hydrogen sulfide donor, thioredoxin inhibitor or nitroxide for use in photodynamic therapy” (UNIVERSITY OF EXETER, priority 2014, dated 2018)
“And” between values parts separate entries of the source, which are not always exact repeats. Equal values may be shown once. Read-outs that look alike come from different tables or passages of the source.

Key:
[1] = tested on: A431 cells; assay: cells; format: cell-based; conditions: for increase in cell killing compared to the use of MAL alone: 10 nM; for potency compared to CP94 (50 μM) exerting a similar degree of potentiation: 10 nM vs CP94 50 μM; for modes of cell death: 1 mM MAL + SRHD 10, 100 or 1000 nM + irradiation, FIG. 19
Description: A431 cells (human epithelial squamous cell carcinoma cells) were seeded at a density of 1×10^6 cells/ml in T12.5 cm^2 flasks and incubated under 2% O2 for 48 h prior to treatment. After 24 h, the culture medium was replaced and the cells were placed back into the incubators under 2% O2. Following this incubation period, the culture medium was then removed and the flasks were washed with PBS. The cells were then treated with one of the SRHDs and incubated at 2% O2 for 2 h, after which MAL was added to a final concentration of 1 mM and the cells were incubated at 2% O2 for 3 h. This meant in total, the cells were treated with the SRHDs for 5 h.
Following this final incubation, cell death was analysed by annexin V-FITC and propidium iodide staining in conjunction with flow cytometry.
(§1) Cell death analysis by flow cytometry was carried out using the annexin V-FITC/propidium iodide protocol. This protocol allows a quantitative assessment of cell death, particularly specific modes of death, and involves staining the cells with fluorescein isothiocyanate-conjugated annexin A5 (annexin V-FITC) and propidium iodide (PI). Positive staining with annexin V-FITC alone indicates an apoptotic cell; positive staining with PI alone indicates a necrotic cell and dual staining of both annexin V and PI indicates a “late apoptotic” cell.
From each flask being assessed, the old medium was removed and placed into a corresponding individual 15 ml Falcon tube in order to collect any cells that may have detached from the surface. The flask was washed once with 1 ml PBS; also deposited in the Falcon tubes. Trypsin (500 μl) was added to each flask and the flasks were returned to the incubator with their caps loosened. Cell detachment was monitored using an inverted light microscope, until 50% of the cells were detached. The flasks were then lightly tapped to detach the remainder of the cells. Medium (2 ml) was added to each flask in order to neutralise the trypsin present before being removed and dispensed into the Falcon tubes. One more wash with PBS was carried out in order to ensure any cells left in the flasks were collected. The Falcon tubes were then centrifuged at 490 g for 3 min, forming a pellet at the bottom of the tube. The supernatant was discarded, and the cells were re-suspended in 5 ml of PBS, in order to wash them, before being centrifuged again at 490 g for 3 min. […] The Falcon tubes were placed on ice and in the dark for 15 min to allow annexin V staining. […] The samples were then ready to be assessed by flow cytometry.
(§2) The following flow cytometry process of sample detection was used. When using annexin V-FITC and PI, the detectors being used were FL1 (λmax=520 nm) and FL3 (λmax=670 nm), respectively, each with their own logarithmic histogram generated by the software. The intensity of the fluorescence detected is measured on a logarithmic scale on the x-axis and the y-axis represents the number of cells detected at a given fluorescence intensity. A plot of FL1/FL3 produces a 4-quadrant graph, where unstained and untreated cells are located in the bottom left quadrant, representing any cells found in the 1st decade of the single plot logarithmic histograms. Single staining with annexin V-FITC and PI are located in the bottom right and top left quadrant, respectively, and dual staining is located in the top right quadrant. These quadrants represent any cells detected above the 1st decade of the logarithmic histograms.

[2] = tested on: A431 cells; conditions: for tolerance over 72 hours: 0-1000 nM
Description: A431 cells were seeded at a density of 1×10^5 cells/ml in 96 well plates and incubated under 2% O2 for 48 h prior to treatment. After 24 h, the culture medium was replaced and the cells were placed back into the incubators under 2% O2. Following this incubation period, the culture medium was then removed and the plates were washed with PBS. The cells were then treated with 1 mM MAL in the absence or presence of one of the compounds of interest and then incubated again at 2% O2 for 3 h. For experiments carried out with SRHDs, this treatment step was carried out for 5 h at 2% O2. After treatment, the cells were washed with PBS, the culture medium was replaced and the cells were placed back under 2% O2 for 3 h. Following this final incubation, cell death was analysed using the resazurin viability assay.
Resazurin (7-hydroxy-3H-phenoxazin-3-one 0-oxide) is a weakly fluorescent blue dye used primarily in oxidation-reduction cell viability assays. Irreversible NADH-dependent reduction by the mitochondria in mammalian cells leads to the production of resorufin, a highly fluorescent product with excitation at 571 nm, emission at 585 nm.
A431 cells were seeded into 96 well plates at a density of 1.5*10^6 cells per ml (200 μl per well, 3*10^5 cells) and incubated for 24 h to adhere. Following incubation, the cells were washed and treated with the compound of interest for the relevant time, and then washed with PBS. […] After a 2 h incubation, the fluorescence of each well was measured (excitation: 571 nm, emission: 585 nm) using a fluorescence plate reader. Data from these experiments was plotted as a percentage of cell viability compared to untreated control cells.

[3] = tested on: A431 cells; assay: MAL-induced PpIX accumulation, fluorescence plate reader; format: cell-based, human; conditions: for effect on PpIX accumulation compared to 1 mM MAL: 10, 100 and 1000 nM 5 hours + MAL 1 mM 3 hours, FIG. 21, 22
Description: After treatment, the cells were washed with PBS and a final 100 μl PBS was pipetted into each well for fluorescence readings. The fluorescence of PpIX was measured using a BMG Pherastar plate reader with a 410 nm excitation filter and a 630 nm emission filter.
A431 cells were treated concurrently with slow-releasing hydrogen sulfide donors (1 μM) for 5 hours and MAL (1 mM) for 3 hours, after which PpIX accumulation was measured by fluorescence plate reader (excitation 410 nm, […]). Co-treatment with CP94 (50 μM) was used as a positive control and for comparison.

[4] = tested on: A431 cells; assay: Mitochondrial reactive oxygen species generation during photodynamic irradiation, MitoSOX flow cytometry; format: cell-based, human
Description: A431 cells were treated concurrently with AP39-C10 (10, 100 or 1000 nM) for 5 hours, MAL (1 mM) for 3 hours and MitoSOX (2.5 μM) for 1 hour, after which they were irradiated for 5 min (630 nm, 25 J/cm^2) and MitoSOX (mito-2-OH-E^+) fluorescence, indicative of mitochondrial oxidant production, was immediately analysed by flow cytometry. Results are set out in FIG. 23.
Mitochondria-targeted dihydroethidium (i.e. MitoSOX) was used to assess the production of mitochondrial reactive oxygen species (ROS) by PpIX photochemical reactions and to determine the effects of AP39-C10 on this process. All of the results are represented as a percentage of the untreated controls (100.0±8.5%). The fluorescence of the photoirradiated cells, which had been pre-treated with MAL, was 193.7±7.3% (p<0.001 c.f. untreated controls).

[5] = tested on: A431 cells; assay: Photodynamic cell killing in the presence of inhibitors of the thioredoxin antioxidant system or nitroxides (annexin V-FITC/propidium iodide flow cytometry); format: cell-based, human
Description: After this treatment, the cells were irradiated for 5 min (630 nm, 25 J/cm^2), then washed with PBS and the culture medium was replaced, after which the cells were placed back under 2% O2 and incubated for a further 3 h. Following this final incubation, cell death was analysed by annexin V-FITC and propidium iodide staining in conjunction with flow cytometry.
as §1
From each flask being assessed, the old medium was removed and placed into a corresponding individual 15 ml Falcon tube in order to collect any cells that may have detached from the surface. The flask was washed once with 1 ml PBS; also deposited in the Falcon tubes. Trypsin (500 μl) was added to each flask and the flasks were returned to the incubator with their caps loosened. Cell detachment was monitored using an inverted light microscope, until 50% of the cells were detached. The flasks were then lightly tapped to detach the remainder of the cells. Medium (2 ml) was added to each flask in order to neutralise the trypsin present before being removed and dispensed into the Falcon tubes. One more wash with PBS was carried out in order to ensure any cells left in the flasks were collected. The Falcon tubes were then centrifuged at 490 g for 3 min, forming a pellet at the bottom of the tube. The supernatant was discarded, and the cells were re-suspended in 5 ml of PBS, in order to wash them, before being centrifuged again at 490 g for 3 min. The wash stage was carried out once more before re-suspending the cell pellet in 95 μl of ice cold calcium (Ca^2+) buffer (50 mM HEPES, 700 mM NaCl, 12.5 mM CaCl2, pH 7.4) and adding 5 μl 12.5 μg/ml of annexin V-FITC (final concentration, 1.25 μg/ml), under reduced light conditions to prevent bleaching of the FITC. The Falcon tubes were placed on ice and in the dark for 15 min to allow annexin V staining. After 15 min, 860 μl of Ca^2+ buffer (10 mM Hepes adjusted to pH 7.4, 140 mM NaCl and 2.5 mM CaCl2) was added, followed by 40 μl of 1 mg/ml PI in water (final concentration, 0.04 mg/ml) to give a final volume of 1 ml. The samples were then ready to be assessed by flow cytometry.
as §2

[6] = tested on: A431 cells; assay: MAL-induced PpIX accumulation, fluorescence plate reader; format: cell-based, human; conditions: 3 hours
[7] = 1 mM MAL + SRHD 10 nM (5 h) + irradiation, FIG. 18
[8] = 1 mM MAL + SRHD 100 nM (5 h) + irradiation, FIG. 18
[9] = 1 mM MAL + SRHD 1 μM (5 h) + irradiation, 3 h post-irradiation
[10] = 1 mM MAL + SRHD 1000 nM (5 h) + irradiation, FIG. 18
[11] = dark toxicity, without irradiation, SRHD 1 μM, 5 h, FIG. 1, 3
[12] = MAL 1 mM + SRHD 10 nM (5 hours), irradiated
[13] = MAL 1 mM + SRHD 100 nM (5 hours), irradiated
[14] = MAL 1 mM + SRHD 1000 nM (5 hours), irradiated

## O=C(CCCCCCCCC[P+](c1ccccc1)(c1ccccc1)c1ccccc1)Oc1ccc(-c2cc(=S)ss2)cc1 [AP39-C10]
[1]
  increase in cell killing compared to the use of MAL alone: ~2 fold
  potency compared to CP94 (50 μM) exerting a similar degree of potentiation: 5000 fold
  modes of cell death: a further increase in apoptosis and late apoptosis, with no apparent effect on necrotic cell death
[1]; [7]
  cell death: 50.7±3.1%
[1]; [8]
  cell death: 53.1±2.3%
[1]; [9]
  cell death: 45.3±1.9%
[1]; [10]
  cell death: 50.2±4.9%
[1]; [11]
  cell death: 12.1±4.9%
[2]; 72 hours
  tolerance over 72 hours: well tolerated at each concentration tested
[2]; 1000 nM, 72 hours, FIG. 17
  cell viability, percentage of untreated control: 94.1±2.6%
[2]; 500 μM, 5 hours, FIG. 15, 16
  cell viability, percentage of untreated control: 59.3±13.3%
[3]
  effect on PpIX accumulation compared to 1 mM MAL: no effect on PpIX accumulation across any of the tested concentrations
[4]; [12]
  MitoSOX fluorescence, percentage of untreated controls: 207.3±10.7%
[4]; [13]
  MitoSOX fluorescence, percentage of untreated controls: 227.1±3.5%
[4]; [14]
  MitoSOX fluorescence, percentage of untreated controls: 214.3±6.4%

## NC(=S)c1ccc(OC(=O)CCCCCCCCC[P+](c2ccccc2)(c2ccccc2)c2ccccc2)cc1 [AP123-C10]
[1]
  increase in cell killing compared to the use of MAL alone: ~2 fold
  potency compared to CP94 (50 μM) exerting a similar degree of potentiation: 5000 fold
  modes of cell death: a further increase in apoptosis and late apoptosis, with no apparent effect on necrotic cell death
[1]; [7]
  cell death: 57.2±1.3%
[1]; [8]
  cell death: 56.5±2.7%
[1]; [9]
  cell death: 50.9±6.5%
[1]; [10]
  cell death: 66.7±5.6%
[1]; [11]
  cell death: 14.5±0.5%
[2]; 72 hours
  tolerance over 72 hours: well tolerated at each concentration tested
[2]; 500 μM, 5 hours, FIG. 15, 16
  cell viability, percentage of untreated control: 62.6±9.1%
[3]
  effect on PpIX accumulation compared to 1 mM MAL: no effect on PpIX accumulation across any of the tested concentrations
[4]; [12]
  MitoSOX fluorescence, percentage of untreated controls: 237.4±8.2%
[4]; [13]
  MitoSOX fluorescence, percentage of untreated controls: 245.3±10.6%
[4]; [14]
  MitoSOX fluorescence, percentage of untreated controls: 248.1±15.1%

## COC(=O)CCC(=O)CN [MAL, methyl aminolaevulinate]
[1]; Homo sapiens, A-431, light or radiation study, 3 h, read-out: cell death, 1 mM MAL 3 h and irradiation (630 nm, 25 J/cm2) in the absence of any SRHD
  cytotoxicity at 1000 µM: 27.5 ± 5.5%
[5]; 1 mM MAL 3 h and irradiation (630 nm, 25 J/cm2) alone, no co-treatment
  cell death: 32.5±3.6% and 29.1±3.8% and 34.4±3.2% and 26.8±1.9% and 24.6±4.2%
[5]; 1 mM MAL and irradiation alone, compared to untreated controls
  modes of cell death: increase in all types of cell death
[3]; MAL 1 mM, 3 hours
  PpIX accumulation compared to untreated controls: significantly increased PpIX accumulation compared to untreated controls
[4]; MAL 1 mM alone, photoirradiated
  MitoSOX fluorescence, percentage of untreated controls: 193.7±7.3% and 220.1±8.5% and 143.3±4.8% and 207.4±16.7%

## CCc1c(O)c(O)cc[n+]1CC.[Cl-] [CP94]
[3]; CP94 50 μM + MAL 1 mM, positive control
  effect on PpIX accumulation compared to 1 mM MAL alone: significantly increased PpIX accumulation
[4]; MAL 1 mM + co-treatment 50 μM, 3 hours, irradiated
  MitoSOX fluorescence, percentage of untreated cells: 198.4±7.7%
[6]; 50 μM + MAL 1 mM, FIG. 35
  increase in PpIX accumulation compared to MAL alone: 223.2±26.1%
[6]; peak at TEMPO 5 mM, MitoTEMPO 100 μM, CP94 100 μM, MAL 1 mM
  peak response, increase in PpIX accumulation compared to MAL alone: 228.1±42.3%
